Results taken from US11739350B2 (priority 2018, dated 2023).

Test system: HPAFII tumours
Set-up: species or system SCID mice
Details: mouse, in vivo, ip

GSK126 gave a tumor volumes of 1609.3 mm^3.
